Counter-ions that a name gives are not always drawn.
System: Acinetobacter baumannii ATCC 17961
Test: Antimicrobial susceptibility testing: 90% growth inhibitory concentration (IC90) determination
Format: cell-based
Settings: ATCC17961, Acinetobacter baumannii ATCC 17961, Iso-Sensitest broth, read-out: ATCC 17961 IC90
Description: Antimicrobial Susceptibility Testing:
90% Growth Inhibitory Concentration (IC90) Determination
The in vitro antimicrobial activity of the compounds was determined according to the following procedure:
The assay used a 10-points Iso-Sensitest broth medium to measure quantitatively the in vitro activity of the compounds against Acinetobacter baumannii ATCC 17961.
Stock compounds in DMSO were serially twofold diluted (e.g. range from 50 to 0.097 μM final concentration) in 384 wells microtiter plates and inoculated with 49 μl the bacterial suspension in Iso-Sensitest medium to have a final cell concentration of ˜5×10^(5) CFU/ml in a final volume/well of 50 ul/well. Microtiter plates were incubated at 35±2° C.
Bacterial cell growth was determined with the measurement of optical density at X=600 nm each 20 minutes over a time course of 16 h. Growth inhibition was calculated during the logarithmic growth of the bacterial cells with determination of the concentration inhibiting 50% (IC50) and 90% (IC90) of the growth.
Table 1 provides the 90% growth inhibitory concentrations (IC90) in micromoles per liter of the compounds of present disclosure obtained against the strain Acinetobacter baumannii ATCC 17961.

| SMILES | IC90 [nM] |
| --- | --- |
| Cn1c(-c2cn(CC#CCO)nc2C(F)(F)F)cnc1C(=O)Nc1ccc(C(=O)N2CCN(C(=O)C3CCNCC3)CC2)c(Cl)c1 [Example 6, N-(3-chloro-4-(4-(piperidine-4-carbonyl)piperazine-1-carbonyl)phenyl)-5-(1-(4-hydroxybut-2-yn-1-yl)-3-(trifluoromethyl)-1H-pyrazol-4-yl)-1-methyl-1H-imidazole-2-carboxamide hydrochloride] | 676 |
| C#CCn1cc(-c2cnc(C(=O)Nc3ccc(C(=O)N4CCN(C(=O)N5C[C@@H]6CNC[C@H]6C5)CC4)c(Cl)c3)n2C)c(C(F)(F)F)n1 [Example 90, N-[4-[4-[(3aS,6aS)-2,3,3a,4,6,6a-hexahydro-1H-pyrrolo[3,4-c]pyrrole-5-carbonyl]piperazine-1-carbonyl]-3-chlorophenyl]-1-methyl-5-[1-prop-2-ynyl-3-(trifluoromethyl)pyrazol-4-yl]imidazole-2-carboxamide] | 218 |
| CN(C(=O)c1ccc(NC(=O)c2ncc(-c3cn(C4CC4(F)F)nc3C(F)(F)F)n2C)cc1Cl)C1CCN(C(=O)N[C@H]2C[C@@H](N)C2)CC1 (mixture of isomers) [Example 294, rac-N-((1s,3s)-3-aminocyclobutyl)-4-(2-chloro-4-(5-(1-(2,2-difluorocyclopropyl)-3-(trifluoromethyl)-1H-pyrazol-4-yl)-1-methyl-1H-imidazole-2-carboxamido)-N-methylbenzamido)piperidine-1-carboxamide formate] | 363 |
| Cn1c(-c2cn(CC3(CO)CC(C)(Cl)C3)nc2C(F)(F)F)cnc1C(=O)Nc1ccc(C(=O)N2CCN(C(=O)C3CCNCC3)CC2)c(Cl)c1 (stereo not drawn) [Example 105, 5-[1-[[3-chloro-1-(hydroxymethyl)-3-methylcyclobutyl]methyl]-3-(trifluoromethyl)pyrazol-4-yl]-N-[3-chloro-4-[4-(piperidine-4-carbonyl)piperazine-1-carbonyl]phenyl]-1-methylimidazole-2-carboxamide;hydrochloride] | 1610 |
| Cn1c(-c2cn(C3CC3)nc2C(F)(F)F)cnc1C(=O)Nc1ccc(C(=O)N2CCN(CCN)CC2)c(Cl)c1 [Example 228, N-(4-(4-(2-aminoethyl)piperazine-1-carbonyl)-3-chlorophenyl)-5-(1-cyclopropyl-3-(trifluoromethyl)-1H-pyrazol-4-yl)-1-methyl-1H-imidazole-2-carboxamide formate] | 263 |
| Cn1c(-c2cn(CC(F)F)nc2C(F)(F)F)cnc1C(=O)Nc1ccc(S(=O)(=O)N2CCN(C(=O)CN)CC2)cc1 [Example 282, 5-(1-(2,2-difluoroethyl)-3-(trifluoromethyl)-1H-pyrazol-4-yl)-N-(4-((4-glycylpiperazin-1-yl)sulfonyl)phenyl)-1-methyl-1H-imidazole-2-carboxamide formate] | 348 |
| Cn1c(-c2cn(CCC(C)(C)O)nc2C(F)(F)F)cnc1C(=O)Nc1ccc(C(=O)N2CCN(C(=O)C3CCNCC3)CC2)c(Cl)c1 [Example 104, N-[3-chloro-4-[4-(piperidine-4-carbonyl)piperazine-1-carbonyl]phenyl]-5-[1-(3-hydroxy-3-methylbutyl)-3-(trifluoromethyl)pyrazol-4-yl]-1-methylimidazole-2-carboxamide;hydrochloride] | 1020 |
| CN(C)CCN(C)C1CCN(C(=O)c2ccc(NC(=O)c3ncc(-c4cn(C5CC5)nc4C(F)(F)F)n3C)cc2Cl)CC1 [Example 357, N-(3-chloro-4-(4-((2-(dimethylamino)ethyl)(methyl)amino)piperidine-1-carbonyl)phenyl)-5-(1-cyclopropyl-3-(trifluoromethyl)-1H-pyrazol-4-yl)-1-methyl-1H-imidazole-2-carboxamide] | 466 |
| C=C(C)Cn1cc(-c2cnc(C(=O)Nc3ccc(C(=O)NCCCN)c(Cl)c3)n2C)c(C(F)(F)F)n1 [Example 255, N-(4-((3-aminopropyl)carbamoyl)-3-chlorophenyl)-1-methyl-5-(1-(2-methylallyl)-3-(trifluoromethyl)-1H-pyrazol-4-yl)-1H-imidazole-2-carboxamide tris(2,2,2-trifluoroacetate)] | 312 |
| Cn1c(-c2cn(CC3CCC3)nc2C(F)(F)F)cnc1C(=O)Nc1ccc(C(=O)N2CCNCC2)c(Cl)c1 [Example 371, N-(3-chloro-4-(piperazine-1-carbonyl)phenyl)-5-(1-(cyclobutylmethyl)-3-(trifluoromethyl)-1H-pyrazol-4-yl)-1-methyl-1H-imidazole-2-carboxamide dihydrochloride] | 485 |
| Cn1c(-c2cn(CCF)nc2C(F)(F)F)cnc1C(=O)Nc1ccc(C(=O)N2CCNCC2)c(Cl)c1 [Example 68, N-[3-chloro-4-(piperazine-1-carbonyl)phenyl]-5-[1-(2-fluoroethyl)-3-(trifluoromethyl)pyrazol-4-yl]-1-methylimidazole-2-carboxamide;hydrochloride] | 489 |
| Cn1c(-c2cn(CCOC(F)(F)F)nc2C(F)(F)F)cnc1C(=O)Nc1ccc(C(=O)N2CCN(C(=O)C3CCNCC3)CC2)c(Cl)c1 [Example 332, N-(3-chloro-4-(4-(piperidine-4-carbonyl)piperazine-1-carbonyl)phenyl)-1-methyl-5-(1-(2-(trifluoromethoxy)ethyl)-3-(trifluoromethyl)-1H-pyrazol-4-yl)-1H-imidazole-2-carboxamide hydrochloride] | 422 |
| Cn1c(-c2cn(CC3CC3(F)F)nc2C(F)(F)F)cnc1C(=O)Nc1ccc(C(=O)N[C@H]2[C@@H]3CN(C(=O)N[C@@H]4CNC[C@H]4O)C[C@@H]32)c(Cl)c1 (mixture of isomers) [Example 385, rac-(1R,5S,6s)-6-(2-chloro-4-(5-(1-((2,2-difluorocyclopropyl)methyl)-3-(trifluoromethyl)-1H-pyrazol-4-yl)-1-methyl-1H-imidazole-2-carboxamido)benzamido)-N-((3S,4S)-4-hydroxypyrrolidin-3-yl)-3-azabicyclo[3.1.0]hexane-3-carboxamide formate] | 100 |
| Cn1c(-c2cn(CC(F)F)nc2C(F)(F)F)cnc1C(=O)Nc1ccc(C(=O)N[C@H]2[C@@H]3CN(C(=O)N[C@@H]4CNC[C@H]4O)C[C@@H]32)c(Cl)c1 [Example 386, (1R,5S,6s)-6-(2-chloro-4-(5-(1-(2,2-difluoroethyl)-3-(trifluoromethyl)-1H-pyrazol-4-yl)-1-methyl-1H-imidazole-2-carboxamido)benzamido)-N-((3R,4R)-4-hydroxypyrrolidin-3-yl)-3-azabicyclo[3.1.0]hexane-3-carboxamide formate] | 110 |
| Cn1c(-c2cn(CC(F)F)nc2C(F)(F)F)cnc1C(=O)Nc1ccc(S(=O)(=O)N2CCN(C(=O)N[C@@H]3CNC[C@H]3O)CC2)cc1 (racemic) [Example 279, rac-4-((4-(5-(1-(2,2-difluoroethyl)-3-(trifluoromethyl)-1H-pyrazol-4-yl)-1-methyl-1H-imidazole-2-carboxamido)phenyl)sulfonyl)-N-((3R,4R)-4-hydroxypyrrolidin-3-yl)piperazine-1-carboxamide formate] | 344 |
| Cn1c(-c2cn(C3CC3)nc2C(F)(F)F)cnc1C(=O)Nc1ccc(C(=O)N2CCN(C(=O)CC3CCNCC3)CC2)c(Cl)c1 [Example 309, N-(3-chloro-4-(4-(2-(piperidin-4-yl)acetyl)piperazine-1-carbonyl)phenyl)-5-(1-cyclopropyl-3-(trifluoromethyl)-1H-pyrazol-4-yl)-1-methyl-1H-imidazole-2-carboxamide hydrochloride] | 378 |
| Cn1c(-c2cn(CC(F)F)nc2C(F)(F)F)cnc1C(=O)Nc1ccc(C(=O)N2CCN(C(=O)N[C@H]3CCNC3)CC2)c(Cl)c1 [Example 142, 4-[2-chloro-4-[[5-[1-(2,2-difluoroethyl)-3-(trifluoromethyl)pyrazol-4-yl]-1-methylimidazole-2-carbonyl]amino]benzoyl]-N-[(3S)-pyrrolidin-3-yl]piperazine-1-carboxamide;formic acid] | 343 |
| Cc1cc(NC(=O)c2ncc(-c3c[nH]nc3C(F)(F)F)n2C)ccc1C(=O)NCCCCCN [Example 50, N-(4-((5-aminopentyl)carbamoyl)-3-methylphenyl)-1-methyl-5-(3-(trifluoromethyl)-1H-pyrazol-4-yl)-1H-imidazole-2-carboxamide hydrochloride] | 4680 |
| Cn1c(-c2cn(C3CC3)nc2C(F)(F)F)cnc1C(=O)Nc1ccc(C(=O)N2CCN(C(=O)CCN)CC2)c(Cl)c1 [Example 252, N-(4-(4-(3-aminopropanoyl)piperazine-1-carbonyl)-3-chlorophenyl)-5-(1-cyclopropyl-3-(trifluoromethyl)-1H-pyrazol-4-yl)-1-methyl-1H-imidazole-2-carboxamide hydrochloride] | 308 |
| CCn1cc(-c2cnc(C(=O)Nc3ccc(C(=O)N4CCN(C(=O)N[C@H]5C[C@@H](N)C5)CC4)c(Cl)c3)n2C)c(C(F)(F)F)n1 [Example 296, N-(3-aminocyclobutyl)-4-[2-chloro-4-[[5-[1-ethyl-3-(trifluoromethyl)pyrazol-4-yl]-1-methylimidazole-2-carbonyl]amino]benzoyl]pipera-zine-1-carboxamide;formic acid] | 364 |
| C#CCn1cc(-c2cnc(C(=O)Nc3ccc(C(=O)NCCOCCN)c(Cl)c3)n2C)c(C(F)(F)F)n1 [Example 48, N-(4-((2-(2-aminoethoxy)ethyl)carbamoyl)-3-chlorophenyl)-1-methyl-5-(1-(prop-2-yn-1-yl)-3-(trifluoromethyl)-1H-pyrazol-4-yl)-1H-imidazole-2-carboxamide trifluoroacetate] | 231 |
